This note sets out measurements from PubChem BioAssay (NCI).

Where “and” joins values, the source holds several entries; their conditions need not be identical. Identical values can stand only once.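 Test compounds were applied to cells in 96-well plates for 48 hours at 5 doses. GI50: concentration for 50% inhibition of growth. TGI is the concentration that stops growth completely.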

Experiment in all cases: inhibition of tumour cell growth, NCI panel, 48 h
For test [1], the system named is A498 renal.
The test system of test [2] is HS 578T breast.
The subject of test [3] is K-562 leukemia.
The subject of test [4] is LOX IMVI melanoma.
For test [5], the system named is MDA-MB-231 breast.
Test [6] has as its system MOLT-4 leukemia.
In test [7] the test system is NCI-H23 lung.
The subject of test [8] is SN12C renal.
Test [9] has as its system U251 CNS.
Test [10] deals with UACC-257 melanoma.

Take `Cc1cc2c(F)c(Oc3ncnn4cc(OC[C@@H](C)OC(=O)[C@H](C)N)c(C)c34)ccc2[nH]1`: the GI50 in test [1] was 4.55 µM; in test [2], 9.36 µM; in [3], 3.83 µM; in test [4], 3.75 µM; in test [5], 14.1 µM; in test [6], 7.25 µM. Moreover, the GI50 is 11.8 µM in [7], 12.6 µM in test [8], 4.22 µM in test [9] and 14.6 µM in test [10]. For the same molecule, the TGI in [1] was found to be 17.3 µM; in test [2], 44.2 µM; in test [3] it was 20.2 µM; in test [4], 18.1 µM; in test [5], 29.7 µM; in [6], 23.5 µM. Besides, the TGI in [7] was determined as 25.9 µM; in [8], 26.2 µM; in [9], 18.5 µM; in [10], 28.1 µM.

Regarding `O=C1c2ccccc2-c2c1c1ccccc1c(=O)n2CCNCCNCCn1c2c(c3ccccc3c1=O)C(=O)c1ccccc1-2`, the GI50 is 14.4 µM in [1]; 4.28 µM in [2]; 0.33 µM in [3]; 0.0437 µM in test [4]; 0.432 µM in test [5]; 0.717 µM in [7]. Further, the GI50 was 0.13 µM in [8], 0.0382 µM in test [9] and 11.3 µM in test [10]. In addition, the TGI is 29.9 µM in test [1]; 38.5 µM in test [2]; greater than 100 µM in [3]; 1.76 µM in test [4]; 5.72 µM in [5]; greater than 100 µM in test [6]. Also, the TGI in test [7] is greater than 30.6 µM; in test [8], 14.1 µM; in test [9], 1.59 µM; in [10], greater than 48.4 µM.

For `COc1ccc(-c2cn[nH]c2-c2cc(OC)c(OC)c(OC)c2)cc1N`, the GI50 in test [1] is less than 0.01 µM; in test [2], < 0.01 µM and 0.0233 µM; in [3], less than 0.01 µM; in test [4], < 0.01 µM and 0.0436 µM; in test [5], < 0.01 µM and 0.063 µM; in test [6] it was < 0.01 µM and 0.0429 µM. The GI50 in test [7] was < 0.01 µM and 0.0634 µM; in test [8] it was < 0.01 µM and 0.0802 µM; in [9] it was < 0.01 µM and 0.0404 µM; in test [10], 28.4 µM. For the same molecule, the TGI in [2], in test [3], in test [4], in test [5], in test [6] and in test [7] was greater than 100 µM each time. For the same molecule, the TGI in [8], in test [9] and in test [10] was greater than 100 µM throughout.

Regarding `C[C@H]1CCC/C=C/[C@@H]2C[C@H](O)C[C@H]2[C@H](O)[C@@H](S(=O)CCN(C)C)CC(=O)O1` (stereo not given in full), the GI50 was 0.116 µM in test [1]; 0.0646 µM in [2]; 0.633 µM in test [3]; 0.0697 µM in test [4]; 0.114 µM in test [5]; 0.349 µM in test [6]. Besides, the GI50 in [7] is 0.229 µM; in test [8], 0.256 µM; in test [9] it was 0.498 µM; in test [10] it was 0.0904 µM. In addition, the TGI in test [2] was greater than 40.8 µM; in test [3], greater than 100 µM; in [4], greater than 100 µM; in [5] it was 0.458 µM; in [7], greater than 38.8 µM; in [9], greater than 100 µM. The molecule also gave a TGI in test [10] greater than 100 µM.

Take `C[C@]12CCC(=O)C(O)=C1CC[C@@H]1[C@@H]2CC[C@]2(C)C(=O)CC[C@@H]12`: the TGI in test [1], in test [2], in test [3], in [4], in [5] and in [6] was greater than 100 µM throughout. The TGI in [7], in test [8], in [9] and in test [10] was greater than 100 µM each time.

Consider `CC(NNC(=S)N1CCCCCC1)c1ccc2ccccc2n1` (stereo not given), for which the GI50 is 4.61 µM in test [1]; 14.5 µM in test [2]; 2.14 µM in test [3]; 2.56 µM in test [4]; 2.03 µM in test [5]; 2.18 µM in [6]. The GI50 in [7] is 11.8 µM; in test [8], 1.84 µM; in [9], 0.92 µM; in test [10], 1.74 µM. Also, the TGI in test [1] was 22.1 µM; in [2] it was greater than 100 µM; in test [3], greater than 100 µM; in test [4], 15.5 µM; in test [5] it was 20.5 µM; in [6], greater than 55.5 µM. Also, the TGI was greater than 87.1 µM in [7], greater than 57.3 µM in [8], 20.4 µM in test [9] and 17 µM in test [10].

For the molecule `Cc1ccc2c(N)c(C(=O)N[C@H]3CCc4cc(N5CC6CCC(C5)N6)ccc4C3)sc2n1`, the GI50 in test [1] was 0.775 µM; in test [2], 0.58 µM; in test [3], 0.203 µM; in test [4], 0.0761 µM; in test [5], 0.606 µM; in test [6] it was 0.174 µM. For the same molecule, the GI50 in test [7] was 1.24 µM; in test [8] it was 0.263 µM; in [9], 0.311 µM; in [10], 0.501 µM. The TGI is 2.65 µM in test [1]; 2.44 µM in [2]; 18 µM in test [3]; 0.405 µM in [4]; 2.71 µM in test [5]; 4.49 µM in [6]. The TGI was 5.31 µM in [7], 1.8 µM in test [8], 2.15 µM in test [9] and 2.84 µM in test [10].

As for `Cc1ccc2c(=O)c3cccc(CC(=O)O)c3oc2c1C`, the GI50 was 70.6 µM in test [1]; greater than 100 µM in [2]; greater than 100 µM in [3]; greater than 100 µM in test [4]; greater than 100 µM in test [5]; greater than 100 µM in test [6]. Further, the GI50 in [7], in [8], in [9] and in [10] was greater than 100 µM in each case. Further, the TGI in [1], in test [2], in test [3], in test [4], in test [5] and in test [6] was greater than 100 µM each time. Also, the TGI in [7], in [8], in [9] and in [10] was greater than 100 µM throughout.
